The target in one assay is T1, human mGlu2 (Homo sapiens, UniProt Q14416).
T1 construct: expressed in transfected cells
Description: Human mGlu2 GIRK thallium flux assay. The format is cell-based. To be noted: HEK293 cells, EC80 glutamate, triplicate assays (14g duplicate). How it is done:
(§1) Cell Line Generation and Thallium Flux Assays. The general procedure for the preparation of human mGlu2 and mGlu3 was described previously, [56] with minor modifications in this work. The cloning sites were NheI/NotI for both receptors. HEK GIRK cells, generously provided by Lily Jan (University of California San Francisco, San Francisco, CA), were transfected with 24 μg of DNA using Fugene6 (Promega), stable transfectants were selected with 1 μg/mL puromycin dihydrochloride (Sigma-Aldrich, St. Louis, MO), and polyclonal human mGlu2 GIRK and mGlu3 GIRK cell lines were established. Cells were maintained following selection in 45% DMEM, 45% Ham's F12, 10% FBS, 100 units/mL penicillin/streptomycin, 20 mM HEPES, pH 7.3, 1 mM sodium pyruvate, 2 mM glutamine, 700 μg/mL G418 (Mediatech, Inc., Herndon, VA), and […] puromycin (growth media) at 37 °C in the presence of 5% CO2. All cell culture reagents were purchased from Invitrogen Corp. (Carlsbad, CA) unless otherwise noted.
(§2) Human mGlu2 and mGlu3 Thallium Flux in Vitro Assays. Potencies of these NAMs at both mGlu2 and mGlu3 were investigated by thallium flux through GIRK channels, which was disclosed in detail as well as described in our previous work. In particular, cells were plated into 384-well, black-walled, clear-bottomed poly(D-lysine_-coated plates at a density of 15 000 cells per well in 20 μL of DMEM containing 10% dialyzed FBS, 20 mM HEPES, and 100 units/mL penicillin/streptomycin (assay media). Plated cells were incubated overnight at 37 °C in the presence of 5% CO2. The next day, the medium was exchanged from the cells to assay buffer [Hanks' balanced salt solution (Invitrogen) containing 20 mM HEPES, pH 7.3] using an ELX405 microplate washer (BioTek), leaving 20 μL per well, followed by the addition of 20 μL per well of FluoZin2-AM (330 nM final concentration) indicator dye (Invitrogen; prepared as a stock in DMSO and mixed in a 1:1 ratio with Pluronic acid F-127) in assay buffer. Cells were incubated for 1 h at room temperature, and the dye was exchanged to assay buffer using an ELX405, leaving 20 μL per well. For concentration-response curve experiments, compounds were serially diluted 1:3 into 10 point concentration-response curves and were transferred to daughter plates using an Echo acoustic plate reformatter (Labcyte, Sunnyvale, CA). Test compounds were diluted to 2 times their final desired concentration in assay buffer (0.3% DMSO final concentration). Agonists were diluted in thallium buffer [125 mM sodium bicarbonate (added fresh the morning of the experiment), 1 mM magnesium sulfate, 1.8 mM calcium sulfate, 5 mM glucose, 12 mM thallium sulfate, and 10 mM HEPES, pH 7.3] at 5 times the final concentration to be assayed. Cell plates and compound plates were loaded onto a kinetic imaging plate reader (FDSS 6000 or 7000; Hamamatsu Corporation, Bridgewater, NJ). Appropriate baseline readings were taken (10 images at 1 Hz; excitation, 470 ± 20 nm; emission, 540 ± 30 nm), and test compounds were added in a 20 μL volume and incubated for approximately 1 h at room temperature before the addition of 10 μL of thallium buffer with or without an EC80 concentration of the agonist glutamate for affinity evaluation experiments or with a full concentration-response of glutamate for Schild analysis experiments. After the addition of agonist, data were collected for approximately an additional 2.5 min. Data were analyzed using Excel (Microsoft Corp, Redmond, WA). The slope of the fluorescence increase beginning 5 s after thallium/agonist addition and ending 15 s after thallium/agonist addition was calculated, corrected to vehicle and maximal agonist control slope values, and plotted using either XLfit (ID Business Solutions Ltd.) or Prism software (GraphPad Software, San Diego, CA) to generate concentration-response curves. Potencies were calculated from fits using a four-point parameter logistic equation.

The target of the next assay is T2, human mGlu3 (Homo sapiens, UniProt Q14832).
T2 construct: expressed in transfected cells
Description: Human mGlu3 GIRK thallium flux assay. As to conditions: HEK293 cells, triplicate assays (14g duplicate). The format is cell-based. How it is done: as §1, §2

A value given as a limit tells only on which side of the number the result lay.

T1 sequence (Q14416 19-872): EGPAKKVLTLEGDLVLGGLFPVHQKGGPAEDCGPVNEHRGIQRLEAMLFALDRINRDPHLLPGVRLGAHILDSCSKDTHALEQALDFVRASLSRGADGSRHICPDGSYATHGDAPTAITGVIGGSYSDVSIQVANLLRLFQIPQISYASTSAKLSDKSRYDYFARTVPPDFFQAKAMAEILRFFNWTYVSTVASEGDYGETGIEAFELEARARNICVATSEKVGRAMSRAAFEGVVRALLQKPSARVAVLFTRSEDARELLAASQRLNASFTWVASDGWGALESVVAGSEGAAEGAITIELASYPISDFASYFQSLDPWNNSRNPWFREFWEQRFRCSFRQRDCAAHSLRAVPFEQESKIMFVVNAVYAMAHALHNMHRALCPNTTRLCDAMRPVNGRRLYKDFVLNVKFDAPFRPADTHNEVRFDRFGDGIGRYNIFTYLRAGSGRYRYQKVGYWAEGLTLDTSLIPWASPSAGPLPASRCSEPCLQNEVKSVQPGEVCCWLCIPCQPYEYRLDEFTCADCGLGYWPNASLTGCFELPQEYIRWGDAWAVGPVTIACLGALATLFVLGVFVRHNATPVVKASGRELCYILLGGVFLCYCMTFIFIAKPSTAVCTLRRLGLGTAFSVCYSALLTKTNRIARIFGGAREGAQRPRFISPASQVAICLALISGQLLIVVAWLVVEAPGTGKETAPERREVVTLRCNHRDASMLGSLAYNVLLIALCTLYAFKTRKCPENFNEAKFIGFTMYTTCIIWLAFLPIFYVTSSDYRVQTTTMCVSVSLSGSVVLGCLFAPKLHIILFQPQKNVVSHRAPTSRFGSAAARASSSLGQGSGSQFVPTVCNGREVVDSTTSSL
T2 sequence (Q14832 23-879): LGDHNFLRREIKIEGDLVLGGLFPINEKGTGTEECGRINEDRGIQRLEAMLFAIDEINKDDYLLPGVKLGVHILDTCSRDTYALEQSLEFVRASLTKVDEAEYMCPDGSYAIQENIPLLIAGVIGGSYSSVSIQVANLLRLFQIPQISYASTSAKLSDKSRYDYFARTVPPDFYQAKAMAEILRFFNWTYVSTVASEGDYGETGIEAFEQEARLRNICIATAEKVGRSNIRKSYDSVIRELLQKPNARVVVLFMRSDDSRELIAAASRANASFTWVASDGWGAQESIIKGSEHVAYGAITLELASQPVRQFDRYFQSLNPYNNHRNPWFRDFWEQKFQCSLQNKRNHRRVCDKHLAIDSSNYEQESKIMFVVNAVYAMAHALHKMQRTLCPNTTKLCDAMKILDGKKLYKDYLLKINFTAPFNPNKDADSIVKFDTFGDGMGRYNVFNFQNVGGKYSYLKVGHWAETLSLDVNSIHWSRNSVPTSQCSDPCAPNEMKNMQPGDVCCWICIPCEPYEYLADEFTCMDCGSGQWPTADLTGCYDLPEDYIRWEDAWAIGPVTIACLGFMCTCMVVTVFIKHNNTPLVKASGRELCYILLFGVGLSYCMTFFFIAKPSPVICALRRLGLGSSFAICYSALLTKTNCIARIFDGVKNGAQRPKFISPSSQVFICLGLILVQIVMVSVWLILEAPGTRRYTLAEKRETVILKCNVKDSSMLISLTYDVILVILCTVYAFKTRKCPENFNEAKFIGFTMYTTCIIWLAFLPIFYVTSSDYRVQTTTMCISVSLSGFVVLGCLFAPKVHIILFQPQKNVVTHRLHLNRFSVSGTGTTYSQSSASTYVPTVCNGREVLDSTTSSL

The IC50 is the point on the concentration scale where inhibition reaches its midpoint. The low end stands for greater potency in that assay, the high end for weaker potency in that assay. Consider `COc1cc(CN2CCc3c(-c4ccc(C)cc4F)cc(C(N)=O)nc3C2)ccn1` [14c, 4-(2-fluoro-4-methyphenyl)-7-((2-methoxypyridin-4-yl)methyl)-5,6,7,8-tetrahydro-1,7-naphthyridine-2-carboxamide], for which the IC50 against human mGlu2 was 129 nM; against human mGlu3, greater than 10 µM.
Regarding `COc1cc(CN2CCc3c(-c4ccc(F)cc4OC)cc(C(N)=O)nc3C2)ccn1` [14d, 4-(4-fluoro-2-methoxyphenyl)-7-((2-methoxypyridin-4-yl)methyl)-5,6,7,8-tetrahydro-1,7-naphthyridine-2-carboxamide], the figures for the half-inhibitory concentration (IC50) on human mGlu2 and against human mGlu3 were 39 nM and greater than 10 µM, respectively.
With `COc1ccc(-c2cc(C(N)=O)nc3c2CCN(Cc2cnc(OC)nc2)C3)c(F)c1` [14f, 4-(2-fluoro-4-methoxyphenyl)-7-((2-methoxypyrimidin-5-yl)methyl)-5,6,7,8-tetrahydro-1,7-naphthyridine-2-carboxamide], the IC50 was 318 nM against human mGlu2 and greater than 10 µM against human mGlu3.
As for `COc1ncc(CN2CCc3c(-c4ccc(C)cc4F)cc(C(N)=O)nc3C2)cn1` [14e, 4-(2-fluoro-4-methyphenyl)-7-((2-methoxypyrimidin-5-yl)methyl)-5,6,7,8-tetrahydro-1,7-naphthyridine-2-carboxamide], the IC50 at human mGlu2 was 106 nM; on human mGlu3, greater than 10 µM.
The corresponding values for `COc1ccc(-c2cc(C(N)=O)nc3c2CCN(Cc2ccnc(OC)c2)C3)c(F)c1` [14a, 4-(2-fluoro-4-methoxyphenyl)-7-((2-methoxypyridin-4-yl)methyl)-5,6,7,8-tetrahydro-1,7-naphthyridine-2-carboxamide] are 39 nM and greater than 10 µM.
Take `COc1cc(CN2CCc3c(-c4ccc(F)cc4Cl)cc(C(N)=O)nc3C2)ccn1` [14g]: the IC50 is 87 nM at human mGlu2 and greater than 30 µM at human mGlu3.

Values taken from publication PMC7532674, “Synthesis and preliminary studies of ^11C-labeled tetrahydro-1,7-naphthyridine-2-carboxamides for PET imaging of metabotropic glutamate receptor 2” (Theranostics, 2020).
